The record followed here is ChEMBL document CHEMBL5576087 (Bioorg Med Chem Lett, 2024).

pIC50: −log10 of the molar value. Activity calls are given as the source filed them. No cut-off for these calls is given here.

One series relates to HuH-6. As to the kind of experiment: Effect on SALL4 protein level in human HuH-6 cells at 0.1 uM measured after 16 hrs by Western blot analysis. The class given is functional, cell-based. (Immunoblotting shows a protein as a band on a membrane.)
Series [1] has as its system MM1.S. As to the kind of experiment: Antiproliferative activity against human MM1.S cells at 10 uM measured after 72 hrs by CCK-8 method. The class given is functional, cell-based. On the technique in general: Tetrazolium dyes change colour on reduction, which living cells bring about.
Series [2] deals with HUVEC. As to the kind of experiment: Antiproliferative activity against human HUVEC cells at 10 uM measured after 48 hrs by CCK-8 method. The class given is toxicity, cell-based.
The subject of series [3] is MM1.S. The experiment in a line: Effect on CK1a protein level in human MM1.S cells at 0.1 uM measured after 16 hrs by Western blot analysis. In kind it is functional, cell-based.
The test system of series [4] is MM1.S. The experiment in a line: Effect on GSPT1 protein level in human MM1.S cells at 0.1 uM measured after 16 hrs by Western blot analysis. In kind it is functional, cell-based.
The subject of series [5] is MM1.S. The experiment in a line: Effect on IKZF3 protein level in human MM1.S cells at 0.1 uM measured after 16 hrs by Western blot analysis. The class given is functional, cell-based.
Series [6] has as its system HUVEC. As to the kind of experiment: Antiangiogenesis activity in HUVEC cells assessed as inhibition of tube formation at 10 to 100 uM measured after 18 hrs. In kind it is functional, cell-based. The following applies: Homo sapiens, dose 10-100 µM.
In the next series the target is Protein cereblon (Homo sapiens, UniProt Q96SW2). As to the kind of experiment: Binding affinity to human CRBN TBD (319 to 425 residues) assessed as inhibition constant by MST assay.
In series [7] the test system is HUVEC. As to the kind of experiment: Inhibition of tube formation in HUVEC cells at 100 uM measured after 18 hrs relative to control. The class given is functional. The conditions noted are these: Homo sapiens.
Series [8] can be described thus: Metabolic stability in human liver microsomes assessed as half life measured upto 60 mins in presence of NADPH by LC/MS analysis. In kind it is ADME, Microsome. (Liver microsomes are vesicles of endoplasmic reticulum, rich in cytochrome P450 enzymes.)
The test system of series [9] is MM1.S. The experiment in a line: Antiproliferative activity against human MM1.S cells at 100 uM measured after 72 hrs by CCK-8 method. In kind it is functional, cell-based.
Series [10] relates to HUVEC. As to the kind of experiment: Antiproliferative activity against human HUVEC cells at 100 uM measured after 48 hrs by CCK-8 method. The class given is toxicity, cell-based.
Series [11] deals with HUVEC. The experiment in a line: Antiproliferative activity against human HUVEC cells at 10 uM measured after 48 hrs by CCK-8 method relative to control. In kind it is toxicity, cell-based.
The test system of series [12] is HUVEC. As to the kind of experiment: Antiangiogenesis activity in HUVEC cells assessed as inhibition of tube formation measured after 18 hrs. In kind it is functional, cell-based. The following applies: Homo sapiens.

Regarding `CC(C)N1C(=O)NC(=O)C(C)(NC(=O)c2ccccc2)C1=O` (centres undefined), the result with HuH-6, in the series on MM1.S [1], in the series with MM1.S [3], in the series on MM1.S [4], in the series with MM1.S [5] and in the series with HUVEC [6] was inactive. Also, the Activity result in the series on HUVEC [2] was “Non-Toxic”. Besides, at Protein cereblon, the Ki entry was “Not Active”.
One may read the inhibition as the drop in the measured response relative to a control, in per cent. Take `CCOCCNc1cccc2c1C(=O)N(C1CCC(=O)NC1=O)C2=O` (centres undefined): testing at 100 µM in the series on HUVEC [7] gave an inhibition of 50%.
A word on the half-life: it is how long it takes for the measured level to halve. `CC(C)N1C(=O)NC(=O)C(C)(N2C(=O)c3ccccc3C2=O)C1=O` (centres undefined): the outcome in the series with HuH-6, in the series on MM1.S [1], in the series with MM1.S [3], in the series with MM1.S [4], with MM1.S [5] and with HUVEC [6] was inactive. The Activity entry in the series with HUVEC [2] was “Non-Toxic”. Also, in [8], the half-life stood at 19.3 min. The Ki entry on Protein cereblon is recorded as “Not Active”.
Regarding `O=C1CCC(N2C(=O)c3c(F)c(F)c(F)c(F)c3C2=O)C(=O)N1` (centres undefined), the result with HuH-6, in the series on MM1.S [3], in the series with MM1.S [4] and in the series with MM1.S [5] was inactive.
As to `O=C1CCC(N2C(=O)c3ccccc3C2=O)C(=O)N1` (centres undefined) [THALIDOMIDE], the outcome in the series with HuH-6, in the series with MM1.S [3], in the series on MM1.S [4], with MM1.S [5], in the series on MM1.S [9] and in the series on HUVEC [6] was inactive. Besides, the Activity entry in the series with HUVEC [10] is “Non-Toxic”.
Consider `CC(C)N1C(=O)NC(=O)C(C)(NC(=O)c2cc(F)c(F)c(F)c2F)C1=O` (centres undefined), for which the outcome in the series with HuH-6, in the series with MM1.S [1], with MM1.S [3], in the series on MM1.S [4], with MM1.S [5] and in the series with HUVEC [6] was inactive. Also, in the series on HUVEC [2], the Activity entry was “Non-Toxic”. Besides, on Protein cereblon, the Ki entry is “Not Active”.
Consider `O=C1CCC(NC(=O)c2ccccc2)C(=O)N1` (centres undefined), for which the outcome in the series on HuH-6, with MM1.S [1], in the series with MM1.S [3], with MM1.S [4], in the series with MM1.S [5] and in the series on HUVEC [6] was inactive. Moreover, the Activity entry in the series with HUVEC [2] is “Non-Toxic”.
For `O=C1CCC(NC(=O)c2cc(F)c(F)c(F)c2F)C(=O)N1` (centres undefined), the outcome in the series on HuH-6, with MM1.S [1], in the series on MM1.S [3], with MM1.S [4], in the series with MM1.S [5] and with HUVEC [6] was inactive. Further, the Activity entry with HUVEC [2] is given as “Non-Toxic”.
Usually pIC50 stands for the negative decadic logarithm of the IC50, by convention in mol/L. On to `CC(C)N1C(=O)NC(=O)C(C)(N2C(=O)c3c(F)c(F)c(F)c(F)c3C2=O)C1=O` (centres undefined), for which the outcome in the series on HuH-6, with MM1.S [3], with MM1.S [4] and with MM1.S [5] was inactive. Also, the Activity in the series on HUVEC [11] was more than 95%. The negative logarithm of the IC50 (pIC50) in the series with HUVEC [12] was 5.55. The Ki entry at Protein cereblon was “Not Active”.
`O=C1CCC(NC(=O)c2cc(F)c(F)cc2F)C(=O)N1` (centres undefined): the inhibition result with HUVEC [7] was “inactive”.
